Where a SMILES comes first, the peptide text is derived from it. [ ]: non-standard residue; d: D form. Phe(4-F) = N[C@@H](Cc1ccc(F)cc1)C(=O)O; NMeM = CN[C@@H](CCSC)C(=O)O
Assays:
mouse = mouse hot plate test (analgesic activity); format: in vivo; details: subcutaneous, hot plate 52° C., 15 minutes after administration, latency until jump
Protocol: In this test, a mouse is placed inside on upright acrylic cylinder comprising, as its base, a hot plate surface which is maintained at 52° C. The mouse is given, orally or by subcutaneous injection, a predetermined amount of test compound dissolved or suspended in a suitable carrier, and, 15 minutes after administration of the test compound, the mouse is placed on the hot plate surface. The latency in seconds until the mouse jumps from the hot plate surface is measured. […] This must occur in a dose range which produces no motor incoordination or incapacitation. The following Table records the ED50 results obtained from this test.

[1] = administered parenterally; cited from earlier work

For C[C@@H](NC(=O)[C@@H](N)Cc1ccc(O)cc1)C(=O)NCC(=O)N[C@@H](Cc1ccc(F)cc1)C(=O)N[C@H](C(N)=O)c1ccccc1 [Example 3 L-Pgl, L-Tyrosyl-D-alanyl-glycyl-L-p-fluorophenylalanyl-L-phenylglycinamide], the “Analgesic Activity, Hot Plate Test, ED50” value (mouse) was 0.063 mg/kg.

In the case of CSCC[C@@H](C(N)=O)N(C)C(=O)[C@H](Cc1ccc(F)cc1)NC(=O)CNC(=O)[C@@H](C)NC(=O)[C@@H](N)Cc1ccc(O)cc1 [Example 1, L-Tyrosyl-D-alanyl glycyl-L-p-fluorophenylalanyl-L-(N^α -methyl)methionin amide], the “Analgesic Activity, Hot Plate Test, ED50” value (mouse) is reported as 0.023 mg/kg.

In the case of C[C@@H](NC(=O)[C@@H](N)Cc1ccc(O)cc1)C(=O)NCC(=O)N[C@@H](Cc1ccc(F)cc1)C(=O)N[C@@H](C(N)=O)c1ccccc1 [Example 3 D-Pgl, L-Tyrosyl-D-alanyl-glycyl-L-p-fluorophenylalanyl-D-phenylglycinamide], the “Analgesic Activity, Hot Plate Test, ED50” value (mouse) is reported as 0.103 mg/kg.

For “H-Tyr-Gly-Gly-Phe-Leu-OH [leucine enkephalin]”, the analgesic activity [1] is given as “practically devoid of any useful analgesic activity”.

With COc1ccc([C@H](NC(=O)[C@H](Cc2ccc(F)cc2)NC(=O)CNC(=O)[C@@H](C)NC(=O)[C@@H](N)Cc2ccc(O)cc2)C(N)=O)cc1 [Example 2, L-Tyrosyl-D-alanyl-glycyl-L-p-fluorophenylalanyl-L-p-methoxyphenylglycinamide] the “Analgesic Activity, Hot Plate Test, ED50” value (mouse) was 1.04 mg/kg.

For “H-Tyr-Gly-Gly-Phe-Met-OH [methionine enkephalin]”, the analgesic activity [1] is listed as “practically devoid of any useful analgesic activity”.

For CSCC[C@@H](C(N)=O)N(C)C(=O)[C@H](Cc1ccc(F)cc1)NC(=O)CNC(=O)[C@H](NC(=O)[C@@H](N)Cc1ccc(O)cc1)[C@H](C)O [Example 4, L-Tyrosyl-D-threonylglycyl-L-p-fluorophenylalanyl-L-(N^α -methyl)methioninamide] (H-Y[dT]G[Phe(4-F)][NMeM]-NH2), the “Analgesic Activity, Hot Plate Test, ED50” value (mouse) was 0.088 mg/kg.

Source: US4283329A, “Pharmacologically active peptides” (Eli Lilly and Company, priority 1979, dated 1981)
